Experiments:
[1] = target: T1, UDP-glucuronosyltransferase 1A9 (Homo sapiens, UniProt O60656); assay: Drug metabolism assessed as UGT1A9-mediated compound glucuronidation in pooled mixed-gender human liver microsomes at 50 uM preincubated at 37 degC for 3 mins before UDPGA addition by HPLC method; format: ADME
T1 sequence (O60656 whole entry): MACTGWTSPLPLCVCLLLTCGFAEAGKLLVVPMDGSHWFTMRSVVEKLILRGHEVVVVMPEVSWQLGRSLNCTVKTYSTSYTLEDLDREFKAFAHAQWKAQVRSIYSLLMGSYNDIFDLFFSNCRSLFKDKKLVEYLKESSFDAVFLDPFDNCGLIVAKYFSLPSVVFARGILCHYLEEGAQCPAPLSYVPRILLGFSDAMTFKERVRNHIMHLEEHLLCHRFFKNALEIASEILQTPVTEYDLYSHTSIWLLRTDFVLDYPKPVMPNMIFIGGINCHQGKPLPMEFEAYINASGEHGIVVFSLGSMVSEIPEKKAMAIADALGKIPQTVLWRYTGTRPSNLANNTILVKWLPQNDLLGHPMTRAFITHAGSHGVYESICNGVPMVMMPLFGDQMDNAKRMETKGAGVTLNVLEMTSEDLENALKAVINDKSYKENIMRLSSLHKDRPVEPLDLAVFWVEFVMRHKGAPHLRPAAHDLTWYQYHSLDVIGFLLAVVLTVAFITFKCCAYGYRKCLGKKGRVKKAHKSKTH

[2] = target: T2, UDP-glucuronosyltransferase 2B7 (Homo sapiens, UniProt P16662); assay: Drug metabolism assessed as UGT2B7-mediated compound glucuronidation in pooled mixed-gender human liver microsomes at 50 uM preincubated at 37 degC for 3 mins before UDPGA addition by HPLC method; format: ADME
T2 sequence (P16662 whole entry): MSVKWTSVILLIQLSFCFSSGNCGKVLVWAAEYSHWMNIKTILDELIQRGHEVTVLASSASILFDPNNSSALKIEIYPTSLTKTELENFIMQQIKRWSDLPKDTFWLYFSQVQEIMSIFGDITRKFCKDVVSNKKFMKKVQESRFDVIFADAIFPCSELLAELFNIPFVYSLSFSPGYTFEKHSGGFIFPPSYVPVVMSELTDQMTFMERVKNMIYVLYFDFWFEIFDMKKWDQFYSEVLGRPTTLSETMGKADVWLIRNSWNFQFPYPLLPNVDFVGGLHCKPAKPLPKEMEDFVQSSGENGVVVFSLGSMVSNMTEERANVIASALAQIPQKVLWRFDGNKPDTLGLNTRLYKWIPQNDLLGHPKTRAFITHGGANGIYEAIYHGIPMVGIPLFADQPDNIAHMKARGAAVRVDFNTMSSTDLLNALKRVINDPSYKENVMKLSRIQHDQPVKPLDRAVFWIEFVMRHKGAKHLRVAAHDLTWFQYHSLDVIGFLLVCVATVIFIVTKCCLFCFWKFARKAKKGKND

[3] = target: T3, UDP-glucuronosyltransferase 1A1 (Homo sapiens, UniProt P22309); assay: Drug metabolism assessed as UGT1A1-mediated compound glucuronidation in pooled mixed-gender human liver microsomes at 50 uM preincubated at 37 degC for 3 mins before UDPGA addition by HPLC method; format: ADME
T3 sequence (P22309 whole entry): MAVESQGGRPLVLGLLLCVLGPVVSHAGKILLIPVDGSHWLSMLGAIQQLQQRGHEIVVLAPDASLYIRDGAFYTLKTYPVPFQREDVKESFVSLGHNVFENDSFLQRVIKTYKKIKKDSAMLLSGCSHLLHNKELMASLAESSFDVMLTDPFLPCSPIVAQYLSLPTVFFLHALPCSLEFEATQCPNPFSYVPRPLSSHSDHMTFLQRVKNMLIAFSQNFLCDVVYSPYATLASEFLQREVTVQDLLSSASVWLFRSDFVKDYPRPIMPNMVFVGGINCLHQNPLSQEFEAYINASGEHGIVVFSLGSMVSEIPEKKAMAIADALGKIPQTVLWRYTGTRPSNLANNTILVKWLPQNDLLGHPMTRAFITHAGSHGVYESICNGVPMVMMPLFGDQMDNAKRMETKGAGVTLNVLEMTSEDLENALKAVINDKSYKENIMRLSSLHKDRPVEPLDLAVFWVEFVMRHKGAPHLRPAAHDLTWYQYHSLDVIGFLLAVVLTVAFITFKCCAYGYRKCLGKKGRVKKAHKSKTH

[4] = target: T4, UDP-glucuronosyltransferase 1A6 (Homo sapiens, UniProt P19224); assay: Drug metabolism assessed as UGT1A6-mediated compound glucuronidation in pooled mixed-gender human liver microsomes at 50 uM preincubated at 37 degC for 3 mins before UDPGA addition by HPLC method; format: ADME
T4 sequence (P19224 whole entry): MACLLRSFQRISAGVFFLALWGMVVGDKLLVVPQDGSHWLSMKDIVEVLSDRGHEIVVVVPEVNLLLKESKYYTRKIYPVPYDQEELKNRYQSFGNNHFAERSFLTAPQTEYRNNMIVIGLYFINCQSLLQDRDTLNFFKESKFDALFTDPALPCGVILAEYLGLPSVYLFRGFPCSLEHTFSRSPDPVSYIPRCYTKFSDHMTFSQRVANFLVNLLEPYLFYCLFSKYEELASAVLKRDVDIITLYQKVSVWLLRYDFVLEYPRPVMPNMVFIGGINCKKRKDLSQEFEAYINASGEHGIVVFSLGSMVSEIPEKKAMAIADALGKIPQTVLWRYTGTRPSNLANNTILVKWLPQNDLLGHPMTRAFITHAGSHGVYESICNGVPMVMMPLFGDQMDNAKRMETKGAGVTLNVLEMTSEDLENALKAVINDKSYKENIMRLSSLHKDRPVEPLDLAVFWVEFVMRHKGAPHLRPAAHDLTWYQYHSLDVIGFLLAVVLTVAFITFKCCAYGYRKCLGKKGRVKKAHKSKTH

[5] = target: T5, UDP-glucuronosyltransferase 1A4 (Homo sapiens, UniProt P22310); assay: Drug metabolism assessed as UGT1A4-mediated compound glucuronidation in pooled mixed-gender human liver microsomes at 50 uM preincubated at 37 degC for 3 mins before UDPGA addition by HPLC method; format: ADME
T5 sequence (P22310 whole entry): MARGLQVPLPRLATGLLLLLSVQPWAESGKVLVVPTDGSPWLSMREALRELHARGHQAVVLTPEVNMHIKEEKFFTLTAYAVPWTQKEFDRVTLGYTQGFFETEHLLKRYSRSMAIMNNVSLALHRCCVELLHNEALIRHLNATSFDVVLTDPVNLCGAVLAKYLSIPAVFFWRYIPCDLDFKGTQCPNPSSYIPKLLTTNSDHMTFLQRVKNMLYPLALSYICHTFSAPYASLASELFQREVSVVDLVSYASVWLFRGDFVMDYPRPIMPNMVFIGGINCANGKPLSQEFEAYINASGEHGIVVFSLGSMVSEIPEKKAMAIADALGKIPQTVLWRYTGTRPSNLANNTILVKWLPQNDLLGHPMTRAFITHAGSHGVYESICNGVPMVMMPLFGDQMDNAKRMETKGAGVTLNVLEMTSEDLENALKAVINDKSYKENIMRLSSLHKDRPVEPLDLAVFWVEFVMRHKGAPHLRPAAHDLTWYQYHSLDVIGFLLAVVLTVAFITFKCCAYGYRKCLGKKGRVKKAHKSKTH

[6] = Toxicity against macrophages (unknown origin) assessed cell viability at 4 times MIC level after 7 days by MTT assay; format: cell-based, Macrophage; settings: read-out: Activity
Liver microsome = assay: Half life in pooled mixed-gender human liver microsomes at 50 uM in presence of NADPH pre-incubated for 3 mins before NADPH addition followed by incubation for 60 mins by reversed-phase HPLC method; format: ADME; settings: 1 h
Cytochrome P450 2D6 [7] = target: T6, Cytochrome P450 2D6 (Homo sapiens, UniProt P10635); assay: Inhibition of […] in pooled mixed-gender human liver microsomes at <25 uM using dextromethorphan substrate in presence of NADPH pre-incubated for 3 mins by HPLC-UV detection method; format: ADME
Cytochrome P450 3A4 [8] = target: T7, Cytochrome P450 3A4 (Homo sapiens, UniProt P08684); assay: Inhibition of CYP3A4 in pooled mixed-gender human liver microsomes using testosterone substrate in presence of NADPH pre-incubated for 3 mins by HPLC-UV detection method; format: ADME
[9] = target: T5, UDP-glucuronosyltransferase 1A4; assay: Inhibition of UGT1A4 in pooled mixed-gender human liver microsomes using 4-methylumbelliferone substrate by HPLC method; format: ADME
[10] = target: T1, UDP-glucuronosyltransferase 1A9; assay: Inhibition of UGT1A9 in pooled mixed-gender human liver microsomes using 4-methylumbelliferone substrate by HPLC method; format: ADME
[11] = target: T5, UDP-glucuronosyltransferase 1A4; assay: Activation of UGT1A4 in pooled mixed-gender human liver microsomes at 50 uM preincubated at 37 degC for 3 mins before UDPGA addition by HPLC method; format: ADME
[12] = target: T2, UDP-glucuronosyltransferase 2B7; assay: Activation of UGT2B7 in pooled mixed-gender human liver microsomes at 50 uM preincubated at 37 degC for 3 mins before UDPGA addition by HPLC method; format: ADME
[13] = target: T3, UDP-glucuronosyltransferase 1A1; assay: Inhibition of UGT1A1 in pooled mixed-gender human liver microsomes using 4-methylumbelliferone substrate by HPLC method; format: ADME
Cytochrome P450 3A4 [14] = target: T7, Cytochrome P450 3A4; assay: Inhibition of CYP3A4 in pooled mixed-gender human liver microsomes at <25 uM using triazolam substrate in presence of NADPH pre-incubated for 3 mins by HPLC-UV detection method; format: ADME
[15] = target: T1, UDP-glucuronosyltransferase 1A9; assay: Activation of UGT1A9 in pooled mixed-gender human liver microsomes at 50 uM preincubated at 37 degC for 3 mins before UDPGA addition by HPLC method; format: ADME
Cytochrome P450 3A4 [16] = target: T7, Cytochrome P450 3A4; assay: Inhibition of CYP3A4 in pooled mixed-gender human liver microsomes at <25 uM using testosterone substrate in presence of NADPH pre-incubated for 3 mins by HPLC-UV detection method; format: ADME
[17] = target: T5, UDP-glucuronosyltransferase 1A4; assay: Activation of UGT1A4 in pooled mixed-gender human liver microsomes at 100 uM preincubated at 37 degC for 3 mins before UDPGA addition by HPLC method; format: ADME
[18] = target: T4, UDP-glucuronosyltransferase 1A6; assay: Activation of UGT1A6 in pooled mixed-gender human liver microsomes at 50 uM preincubated at 37 degC for 3 mins before UDPGA addition by HPLC method; format: ADME
Cytochrome P450 3A4 [19] = target: T7, Cytochrome P450 3A4; assay: Inhibition of CYP3A4 in pooled mixed-gender human liver microsomes using triazolam substrate in presence of NADPH pre-incubated for 3 mins by HPLC-UV detection method; format: ADME
Cytochrome P450 2D6 [20] = target: T6, Cytochrome P450 2D6; assay: Activation of […] in pooled mixed-gender human liver microsomes using dextromethorphan substrate in presence of NADPH pre-incubated for 3 mins by HPLC-UV detection method; format: ADME
[21] = target: T2, UDP-glucuronosyltransferase 2B7; assay: Inhibition of […] in pooled mixed-gender human liver microsomes using 4-methylumbelliferone substrate by HPLC method; format: ADME
[22] = target: T4, UDP-glucuronosyltransferase 1A6; assay: Inhibition of UGT1A6 in pooled mixed-gender human liver microsomes using 4-methylumbelliferone substrate by HPLC method; format: ADME
[23] = tested on: Human immunodeficiency virus 1; assay: Antiviral activity against HIV1 infected in human MAGI-R5 cells; format: functional, organism-based; settings: Human immunodeficiency virus 1, MAGI-R5
[24] = Dissociation constant, pKa of the compound; format: physicochemical
Cytochrome P450 3A4 [25] = target: T7, Cytochrome P450 3A4; assay: Activation of CYP3A4 in pooled mixed-gender human liver microsomes using triazolam substrate in presence of NADPH pre-incubated for 3 mins by HPLC-UV detection method; format: ADME
Cytochrome P450 3A4 [26] = target: T7, Cytochrome P450 3A4; assay: Activation of CYP3A4 in pooled mixed-gender human liver microsomes using testosterone substrate in presence of NADPH pre-incubated for 3 mins by HPLC-UV detection method; format: ADME
[27] = target: T3, UDP-glucuronosyltransferase 1A1; assay: Activation of UGT1A1 in pooled mixed-gender human liver microsomes at 50 uM preincubated at 37 degC for 3 mins before UDPGA addition by HPLC method; format: ADME
Cytochrome P450 2D6 [28] = target: T6, Cytochrome P450 2D6; assay: Inhibition of […] in pooled mixed-gender human liver microsomes using dextromethorphan substrate in presence of NADPH pre-incubated for 3 mins by HPLC-UV detection method; format: ADME

T7 sequence (P08684 whole entry): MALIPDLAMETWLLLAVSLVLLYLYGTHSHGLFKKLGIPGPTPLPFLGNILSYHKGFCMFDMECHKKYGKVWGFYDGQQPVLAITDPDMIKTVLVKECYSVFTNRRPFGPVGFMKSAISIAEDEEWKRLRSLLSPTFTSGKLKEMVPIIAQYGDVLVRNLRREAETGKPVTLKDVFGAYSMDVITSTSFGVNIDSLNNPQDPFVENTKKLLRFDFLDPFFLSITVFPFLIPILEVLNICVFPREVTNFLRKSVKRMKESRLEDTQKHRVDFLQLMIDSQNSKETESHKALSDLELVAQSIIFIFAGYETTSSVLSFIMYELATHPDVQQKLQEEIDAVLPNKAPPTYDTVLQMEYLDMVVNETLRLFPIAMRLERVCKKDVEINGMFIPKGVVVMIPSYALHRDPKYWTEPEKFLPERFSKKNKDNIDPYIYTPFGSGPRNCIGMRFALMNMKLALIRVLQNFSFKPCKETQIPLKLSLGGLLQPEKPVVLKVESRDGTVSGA
T6 sequence (P10635 whole entry): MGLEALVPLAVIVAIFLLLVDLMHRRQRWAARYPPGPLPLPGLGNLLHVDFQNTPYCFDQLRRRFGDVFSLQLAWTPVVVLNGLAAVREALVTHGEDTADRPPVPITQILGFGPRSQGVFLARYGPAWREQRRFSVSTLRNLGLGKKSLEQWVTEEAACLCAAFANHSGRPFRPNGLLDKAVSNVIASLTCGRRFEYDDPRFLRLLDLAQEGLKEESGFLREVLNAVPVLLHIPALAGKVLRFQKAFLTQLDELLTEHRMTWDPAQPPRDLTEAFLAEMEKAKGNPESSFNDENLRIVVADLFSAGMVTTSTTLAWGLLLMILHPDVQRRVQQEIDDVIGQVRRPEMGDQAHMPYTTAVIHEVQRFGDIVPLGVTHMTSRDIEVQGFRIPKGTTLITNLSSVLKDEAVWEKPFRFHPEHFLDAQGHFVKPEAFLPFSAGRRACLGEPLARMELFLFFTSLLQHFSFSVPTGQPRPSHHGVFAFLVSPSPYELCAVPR

For `Cc1nnc(C(=O)NC(C)(C)c2nc(C(=O)NCc3ccc(F)cc3)c(O)c(=O)n2C)o1` [RALTEGRAVIR], the Drug metabolism [1] was “metabolite_detected”, the Drug metabolism [2] was “metabolite_detected” and the Drug metabolism [3] was “metabolite_detected”. For the same molecule, the Drug metabolism [4] was “metabolite_detected” and the Drug metabolism [5] was “metabolite_detected”.
With `[H]/N=C(/N)N[C@H]1[C@H](O)[C@@H](O)[C@H](O[C@@H]2O[C@@H](C)[C@](O)(C=O)[C@H]2O[C@@H]2O[C@@H](CO)[C@H](O)[C@@H](O)[C@@H]2NC)[C@@H](N/C(N)=N\[H])[C@@H]1O` [STREPTOMYCIN] the viability at 168 h, 4 times MIC [6] was 90%.
For `O=C(/C=C(\O)C(=O)N1CCN(c2ccc(-n3cccc3)cc2)CC1)c1cc(Cc2cc(F)cc(F)c2)cn(Cc2ccccc2F)c1=O`, the t1/2 (Liver microsome) was 14.4 h, the “inhibition (INH)” value (Cytochrome P450 2D6 [7]) was “Not Active” and the IC50 (Cytochrome P450 3A4 [8]) was over 50 µM. For the same molecule, the IC50 [9] was “Not Active”, the IC50 [10] was over 300 µM and the Activity [11] was “Not Active”. For the same molecule, the Activity [12] was “Not Active”, the IC50 [13] was over 300 µM and the “inhibition (INH)” value (Cytochrome P450 3A4 [14]) was “Not Active”. The Activity [15] was “Not Active”, the “inhibition (INH)” value (Cytochrome P450 3A4 [16]) was “Not Active” and the Drug metabolism [1] was “metabolite_notdetected”. For the same molecule, the Drug metabolism [2] was “metabolite_notdetected”, the Activity [17] was “Active” and the Drug metabolism [3] was “metabolite_notdetected”. For the same molecule, the Activity [18] was “Not Active”, the IC50 (Cytochrome P450 3A4 [19]) was over 85 µM and the Activity (Cytochrome P450 2D6 [20]) was “Not Active”. The IC50 [21] was over 300 µM, the IC50 [22] was over 300 µM and the IC50 [23] was 0.05 µM. The pKa [24] was 9, the Activity (Cytochrome P450 3A4 [25]) was “Not Active” and the Activity (Cytochrome P450 3A4 [26]) was “Not Active”. The Activity [27] was “Not Active”, the IC50 (Cytochrome P450 2D6 [28]) was over 185 µM and the Drug metabolism [4] was “metabolite_notdetected”. For the same molecule, the viability at 168 h, 4 times MIC [6] was over 85% and the Drug metabolism [5] was “metabolite_notdetected”.

Reference: ChEMBL document CHEMBL3397011, “A novel molecule with notable activity against multi-drug resistant tuberculosis” (Bioorg Med Chem Lett, 2015)
